According to patent US11766422B2, “Galloylated procyanidins for treating endovascular dysfunction and increasing blood flow” (UNIVERSITY OF SOUTH FLORIDA, priority 2018, dated 2023):
Where two headings read alike, the source gives them in different places.

Assays:
[1] = tested on: RAW264.7 mouse cells; assay: Nitric Oxide Assay (DAF-FM fluorescence, confocal microscopy); format: cell-based
Experimental: Drug Preparation. […] The current formulation, L-arginine (COMPOUND SOLUTIONS) and L-citrulline DL-malate 2:1 (COMPOUND SOLUTIONS) were each prepared at 300 mg/ml in DMEM without phenol red (CORNING) and stored at −20° C. until use. Arginine silicate and lipopolysaccharides from E. coli 0111: B4 (LPS; SIGMA ALDRICH) were dissolved in DMSO to 300 mg/ml and 50 μg/ml, respectively, and stored frozen until use. 4,5-Diaminofluorescein Diacetate (DAF-FM) was diluted from 5 mM stocks in DMSO.
Cell Culture. […] All experiments were completed with cultures under 8 passages, and cell densities were maintained between 0.2×10^6 and 0.8×10^6 cells per ml during maintenance.
Cells were triturated with complete growth medium. Density was determined under phase-contrast using 0.2% Trypan blue. Three viable cell counts were performed on the hemocytometer and averaged.
Nitric Oxide Assay. […] DAF-FM diacetate is essentially non-fluorescent until it reacts with nitric oxide to form a fluorescent benzotriazole. DAF-FM diacetate is cell-permeant and passively diffuses across cellular membranes. Once inside cells, it is deacetylated by intracellular esterases to become DAF-FM.
Here, cells (50,000) in 3 ml of complete growth medium were plated onto 35-mm glass bottom dishes (MATTEK) pre-coated with poly-D-lysine. Cells were grown for 24 h and washed twice in HBS. Three (3) ml of serum-free medium was added. Cells were then treated with 1 μM lipopolysaccharide or various concentrations of test agents and grown for an additional 30 min. DAF-FM was added to cells to a final concentration of 2 μM and incubated for an additional 30 min.
For confocal microscopy, medium was removed, and cells were washed once in HBS and replaced with 3 ml Live Cell Imaging solution (INVITROGEN). […] For cell treatments resulting in little or no fluorescence, 4′,6-diamidino-2-phenylindole (DAPI, MOLECULAR PROBES) was added at a final concentration of 300 nM to an additional sample. Images were captured and analyzed as tiff formatted files. […] For determining fluorescence, the entire image was analyzed for each image taken.

[2] = tested on: heme oxygenase 1 in RAW264, 7 cells; settings: galloyl-derivative compared to non-galloylated parent molecule; cited from earlier work
[3] = tested on: HUVEC; settings: cited from earlier work
[4] = biological target: T1, pancreatic lipase (Homo sapiens, UniProt P16233); settings: Control: Untreated enzyme; cited from earlier work
T1 sequence (P16233 17-465): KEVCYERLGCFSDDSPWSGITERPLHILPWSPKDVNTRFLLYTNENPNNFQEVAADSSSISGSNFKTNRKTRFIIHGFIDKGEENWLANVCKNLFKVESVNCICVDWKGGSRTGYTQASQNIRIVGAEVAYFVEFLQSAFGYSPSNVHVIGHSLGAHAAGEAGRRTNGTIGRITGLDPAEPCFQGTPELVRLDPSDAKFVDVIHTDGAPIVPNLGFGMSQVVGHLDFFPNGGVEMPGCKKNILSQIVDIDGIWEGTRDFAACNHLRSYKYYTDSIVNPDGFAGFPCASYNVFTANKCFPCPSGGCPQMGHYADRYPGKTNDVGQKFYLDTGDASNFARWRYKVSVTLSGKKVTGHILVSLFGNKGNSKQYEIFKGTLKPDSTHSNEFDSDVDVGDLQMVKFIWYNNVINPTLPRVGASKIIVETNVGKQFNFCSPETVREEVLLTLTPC

[5] = tested on: S-G cells (immortalized gum epithelial cells); settings: cited from earlier work
[6] = biological target: fatty acid synthase (Homo sapiens, UniProt P49327); settings: Control: Untreated enzyme; cited from earlier work
[7] = tested on: HUVEC; settings: Control: Untreated cells; cited from earlier work
[8] = biological target: type 1 ryanodine receptor (Homo sapiens, UniProt P21817); settings: Control: Untreated receptor; cited from earlier work
Chain of type 1 ryanodine receptor (P21817 whole entry, species assumed): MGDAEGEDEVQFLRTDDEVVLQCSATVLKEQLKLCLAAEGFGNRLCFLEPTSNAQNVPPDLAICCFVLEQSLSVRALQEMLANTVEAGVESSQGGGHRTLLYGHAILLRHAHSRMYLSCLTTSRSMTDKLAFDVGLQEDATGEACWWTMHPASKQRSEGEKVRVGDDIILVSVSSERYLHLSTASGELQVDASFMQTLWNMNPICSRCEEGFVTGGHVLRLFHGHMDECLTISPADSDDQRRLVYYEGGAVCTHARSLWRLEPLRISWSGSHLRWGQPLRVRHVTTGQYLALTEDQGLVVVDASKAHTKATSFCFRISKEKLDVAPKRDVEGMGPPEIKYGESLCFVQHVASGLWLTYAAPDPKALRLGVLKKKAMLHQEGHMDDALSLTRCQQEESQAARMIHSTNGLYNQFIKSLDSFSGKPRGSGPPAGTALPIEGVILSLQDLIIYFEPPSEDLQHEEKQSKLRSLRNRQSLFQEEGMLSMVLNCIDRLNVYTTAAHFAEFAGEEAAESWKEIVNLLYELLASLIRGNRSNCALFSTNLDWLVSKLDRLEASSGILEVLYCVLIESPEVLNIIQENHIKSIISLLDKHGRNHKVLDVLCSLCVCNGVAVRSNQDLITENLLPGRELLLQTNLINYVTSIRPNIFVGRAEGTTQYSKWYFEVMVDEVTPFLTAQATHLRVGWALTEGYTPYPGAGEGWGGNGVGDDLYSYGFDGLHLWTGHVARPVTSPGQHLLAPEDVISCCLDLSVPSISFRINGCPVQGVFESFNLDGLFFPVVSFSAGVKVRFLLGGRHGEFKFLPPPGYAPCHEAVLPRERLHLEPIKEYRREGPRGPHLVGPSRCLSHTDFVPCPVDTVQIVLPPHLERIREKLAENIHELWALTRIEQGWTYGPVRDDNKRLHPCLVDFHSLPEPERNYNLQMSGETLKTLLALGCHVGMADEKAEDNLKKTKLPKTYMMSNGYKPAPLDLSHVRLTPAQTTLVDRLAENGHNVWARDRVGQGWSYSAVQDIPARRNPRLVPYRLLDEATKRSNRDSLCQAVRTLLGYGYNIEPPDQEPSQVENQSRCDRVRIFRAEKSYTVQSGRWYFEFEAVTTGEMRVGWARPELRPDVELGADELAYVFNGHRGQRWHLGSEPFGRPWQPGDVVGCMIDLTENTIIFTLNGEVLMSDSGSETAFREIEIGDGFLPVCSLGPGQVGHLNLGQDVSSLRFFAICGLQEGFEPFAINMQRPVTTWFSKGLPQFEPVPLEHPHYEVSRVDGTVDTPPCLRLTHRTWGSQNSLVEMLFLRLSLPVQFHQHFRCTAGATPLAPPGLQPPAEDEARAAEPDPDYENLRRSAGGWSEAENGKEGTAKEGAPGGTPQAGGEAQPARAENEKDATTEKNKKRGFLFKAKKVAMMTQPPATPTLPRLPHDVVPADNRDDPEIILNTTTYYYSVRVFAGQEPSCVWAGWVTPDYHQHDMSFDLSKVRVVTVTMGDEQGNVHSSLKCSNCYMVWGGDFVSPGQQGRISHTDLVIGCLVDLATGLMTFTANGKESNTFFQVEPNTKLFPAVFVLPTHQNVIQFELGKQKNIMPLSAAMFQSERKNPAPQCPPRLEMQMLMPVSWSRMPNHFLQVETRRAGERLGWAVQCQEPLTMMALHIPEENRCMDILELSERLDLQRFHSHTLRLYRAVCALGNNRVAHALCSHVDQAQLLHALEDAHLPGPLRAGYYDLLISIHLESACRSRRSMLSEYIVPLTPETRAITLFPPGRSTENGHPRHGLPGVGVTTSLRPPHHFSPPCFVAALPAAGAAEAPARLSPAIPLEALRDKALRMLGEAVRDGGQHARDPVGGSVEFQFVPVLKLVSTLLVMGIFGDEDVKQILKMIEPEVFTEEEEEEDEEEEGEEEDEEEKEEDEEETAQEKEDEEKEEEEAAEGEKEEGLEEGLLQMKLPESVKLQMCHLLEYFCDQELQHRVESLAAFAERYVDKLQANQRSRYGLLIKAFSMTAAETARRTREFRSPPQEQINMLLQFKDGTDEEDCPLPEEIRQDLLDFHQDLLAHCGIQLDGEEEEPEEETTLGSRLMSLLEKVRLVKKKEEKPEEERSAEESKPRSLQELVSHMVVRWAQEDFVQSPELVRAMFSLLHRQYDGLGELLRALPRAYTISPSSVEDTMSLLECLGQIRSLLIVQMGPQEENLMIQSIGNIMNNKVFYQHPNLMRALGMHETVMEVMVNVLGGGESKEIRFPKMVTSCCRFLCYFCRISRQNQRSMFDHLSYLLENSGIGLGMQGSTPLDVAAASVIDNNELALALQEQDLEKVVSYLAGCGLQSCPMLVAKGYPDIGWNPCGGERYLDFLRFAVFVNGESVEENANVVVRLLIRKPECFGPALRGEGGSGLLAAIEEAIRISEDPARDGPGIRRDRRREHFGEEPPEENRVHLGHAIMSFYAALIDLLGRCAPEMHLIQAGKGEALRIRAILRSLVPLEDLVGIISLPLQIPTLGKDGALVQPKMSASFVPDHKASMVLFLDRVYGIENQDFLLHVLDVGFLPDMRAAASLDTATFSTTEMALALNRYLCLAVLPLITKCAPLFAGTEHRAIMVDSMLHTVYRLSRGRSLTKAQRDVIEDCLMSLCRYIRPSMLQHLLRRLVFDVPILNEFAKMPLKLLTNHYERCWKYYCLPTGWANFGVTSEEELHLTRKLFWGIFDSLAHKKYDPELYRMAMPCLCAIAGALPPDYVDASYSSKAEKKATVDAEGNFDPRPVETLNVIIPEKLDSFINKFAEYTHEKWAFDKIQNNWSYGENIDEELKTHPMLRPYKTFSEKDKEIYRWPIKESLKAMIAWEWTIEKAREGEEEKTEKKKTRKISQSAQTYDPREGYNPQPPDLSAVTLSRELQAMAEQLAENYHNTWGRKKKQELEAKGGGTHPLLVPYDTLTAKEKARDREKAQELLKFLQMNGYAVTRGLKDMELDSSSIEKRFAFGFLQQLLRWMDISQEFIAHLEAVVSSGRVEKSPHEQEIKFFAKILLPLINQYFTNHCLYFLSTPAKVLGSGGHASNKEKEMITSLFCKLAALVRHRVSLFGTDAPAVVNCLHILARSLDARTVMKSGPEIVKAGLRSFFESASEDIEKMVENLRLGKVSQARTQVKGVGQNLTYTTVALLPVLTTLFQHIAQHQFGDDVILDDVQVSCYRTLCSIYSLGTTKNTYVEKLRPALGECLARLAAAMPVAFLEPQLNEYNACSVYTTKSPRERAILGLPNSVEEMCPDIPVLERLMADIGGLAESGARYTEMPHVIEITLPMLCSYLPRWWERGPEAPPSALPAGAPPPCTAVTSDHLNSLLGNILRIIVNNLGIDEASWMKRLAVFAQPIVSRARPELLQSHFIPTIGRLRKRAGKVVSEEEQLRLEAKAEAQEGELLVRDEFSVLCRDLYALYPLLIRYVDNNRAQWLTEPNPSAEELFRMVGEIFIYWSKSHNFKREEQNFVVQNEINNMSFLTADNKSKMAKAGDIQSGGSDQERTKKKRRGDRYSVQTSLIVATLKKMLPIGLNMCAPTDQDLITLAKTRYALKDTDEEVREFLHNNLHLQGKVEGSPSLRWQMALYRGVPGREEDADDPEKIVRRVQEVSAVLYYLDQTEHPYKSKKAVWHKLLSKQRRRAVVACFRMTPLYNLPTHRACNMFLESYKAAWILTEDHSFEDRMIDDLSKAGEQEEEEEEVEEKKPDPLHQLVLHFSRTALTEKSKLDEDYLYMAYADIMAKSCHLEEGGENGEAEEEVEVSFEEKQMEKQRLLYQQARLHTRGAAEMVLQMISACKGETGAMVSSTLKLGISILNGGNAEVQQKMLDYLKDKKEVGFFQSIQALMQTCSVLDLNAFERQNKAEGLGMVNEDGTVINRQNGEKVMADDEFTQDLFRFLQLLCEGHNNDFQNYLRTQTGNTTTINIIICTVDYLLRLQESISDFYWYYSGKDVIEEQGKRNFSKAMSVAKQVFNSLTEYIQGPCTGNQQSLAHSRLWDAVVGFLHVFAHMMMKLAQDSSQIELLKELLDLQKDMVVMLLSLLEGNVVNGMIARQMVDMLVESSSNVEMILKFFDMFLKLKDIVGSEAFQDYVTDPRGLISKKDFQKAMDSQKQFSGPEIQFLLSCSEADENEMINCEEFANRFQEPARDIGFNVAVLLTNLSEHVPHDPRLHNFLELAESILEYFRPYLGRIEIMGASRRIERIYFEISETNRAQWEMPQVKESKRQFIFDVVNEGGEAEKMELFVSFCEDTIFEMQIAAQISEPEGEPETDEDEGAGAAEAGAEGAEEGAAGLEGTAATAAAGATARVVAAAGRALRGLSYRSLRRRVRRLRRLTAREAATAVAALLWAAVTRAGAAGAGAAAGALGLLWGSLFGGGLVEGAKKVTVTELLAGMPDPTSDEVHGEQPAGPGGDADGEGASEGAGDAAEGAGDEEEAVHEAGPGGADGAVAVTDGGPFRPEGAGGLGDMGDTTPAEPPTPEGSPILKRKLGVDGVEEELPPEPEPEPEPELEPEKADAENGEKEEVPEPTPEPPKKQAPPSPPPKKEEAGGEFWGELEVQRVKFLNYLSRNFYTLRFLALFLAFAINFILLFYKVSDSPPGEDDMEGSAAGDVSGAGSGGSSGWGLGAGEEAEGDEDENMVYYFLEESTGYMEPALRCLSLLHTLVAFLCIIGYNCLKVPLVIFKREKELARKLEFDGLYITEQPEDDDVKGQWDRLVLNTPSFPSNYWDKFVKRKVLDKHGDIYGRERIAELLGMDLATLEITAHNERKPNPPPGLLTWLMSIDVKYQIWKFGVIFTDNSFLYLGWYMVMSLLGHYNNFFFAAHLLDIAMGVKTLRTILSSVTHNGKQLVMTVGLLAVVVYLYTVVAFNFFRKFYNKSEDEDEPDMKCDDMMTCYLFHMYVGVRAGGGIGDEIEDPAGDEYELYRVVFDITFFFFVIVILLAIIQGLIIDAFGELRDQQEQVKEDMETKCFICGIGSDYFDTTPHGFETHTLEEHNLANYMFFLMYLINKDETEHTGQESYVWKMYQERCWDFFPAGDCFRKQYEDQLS

[9] = tested on: NA+/K+ ATPase pump; settings: Control: Untreated pump; cited from earlier work
[10] = tested on: NA/H exchanger; settings: Control: Untreated exchanger; cited from earlier work
[11] = tested on: human umbilical vein endothelial cells (HUVEC); settings: galloyl-derivative compared to non-galloylated parent molecule; cited from earlier work
[12] = Control: C, EC; cited from earlier work
[13] = tested on: fatty acid synthase expression, MCF-7 cells; settings: Control: Untreated cells; cited from earlier work
[14] = tested on: HL-60 cells; settings: Control: Untreated cells; cited from earlier work
[15] = biological target: T2, rat liver microsomal 5α-reductase (Rattus norvegicus, UniProt P24008); settings: cited from earlier work
T2 sequence (P24008 1-259): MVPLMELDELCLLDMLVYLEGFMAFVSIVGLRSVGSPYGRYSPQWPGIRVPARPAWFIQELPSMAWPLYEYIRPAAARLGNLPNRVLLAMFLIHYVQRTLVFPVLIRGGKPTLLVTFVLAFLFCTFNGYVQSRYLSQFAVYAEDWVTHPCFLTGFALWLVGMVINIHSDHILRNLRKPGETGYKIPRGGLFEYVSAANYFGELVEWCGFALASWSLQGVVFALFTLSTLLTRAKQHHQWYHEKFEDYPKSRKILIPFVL

[16] = tested on: HL-60 cells; settings: Control: Untreated cells; cited from earlier work; remark: listed apart in the source
[17] = tested on: LNCaP and DU145 cells; settings: Control: Untreated cells; cited from earlier work
[18] = tested on: MCF-7 and MDA-MB231 cells; settings: Control: Untreated cells; cited from earlier work
[19] = tested on: erythrocytes; settings: Control: Untreated erythrocytes; cited from earlier work
[20] = tested on: K562 cells; settings: cited from earlier work

Question: For NC(=O)NCCC[C@H](N)C(=O)O.NC(=O)NCCC[C@H](N)C(=O)O.O=C(O)CC(O)C(=O)O (racemic) [L-citrulline-DL-malate 2:1, L-citrulline DL-malate 2:1], which “mean fluorescence (DAF-FM)” value ([1]; RAW264.7 cells, 600 μg/ml samples) is on record?
Answer: The value was “noticeably low mean fluorescence”.

Question: With O=C(Oc1c(-c2ccc(O)c(O)c2)oc2cc(O)cc(O)c2c1=O)c1cc(O)c(O)c(O)c1 [3GQ] as the molecule, how does the “Effect: Induction of heme oxygenase 1 in RAW264, 7 cells” value [2] read?
Answer: Its value is “↓↓”.

Question: What about the “Effect: Cytotoxicity, inhibition of proliferation, migration and tube formation of HUVEC” value (“Effect: Cytotoxicity, inhibition” for short) [3] of the same molecule?
Answer: The value was “↑↑”.

Question: Which “Effect: Induction of heme oxygenase 1 in RAW264, 7 cells” value [2] does the source give for O=C(Oc1cc(O)c2c(c1)O[C@H](c1ccc(O)c(O)c1)[C@@H](O)C2=O)c1cc(O)c(O)c(O)c1 [7GT] here?
Answer: Its value is “↑↑↑”.

Question: And the “Effect: Cytotoxicity, inhibition” value [3]?
Answer: Its value is “↑↑”.

Question: For O=C(O[C@H]1Cc2c(O)cc(O)cc2O[C@@H]1c1ccc(O)c(O)c1)c1cc(O)c(O)c(O)c1 [CG], which “Effect: Reduction of pancreatic lipase activity in vitro” value (“Effect: Reduction … in vitro” for short) [4] is on record?
Answer: Its value is “↑↑↑”.

Question: And the “Effect: Cytotoxicity towards S-G cells (immortalized gum epithelial cells)” value (“Effect: Cytotoxicity towards S-G cells” for short) ([5]; Control: Untreated cells)?
Answer: Its value is “↑↑↑”.

Question: With Oc1cc(O)c2c(c1)O[C@H](c1ccc(O)c(O)c1)[C@H](O)C2 [EC, epicatechin] as the molecule, how does the “Effect: Cytotoxicity towards S-G cells” value [5] read?
Answer: Its value is “↑”.

Question: Which results are given for O=C(O[C@@H]1Cc2c(O)cc(O)cc2O[C@@H]1c1ccc(O)c(O)c1)c1cc(O)c(O)c(O)c1 [ECG, Epicatechin gallate]?
Answer: Effect: Inhibition of fatty acid synthase activity [6]: ↑↑↑; Effect: Reduction of pancreatic lipase activity in vitro [4]: ↑↑; Effect: Inhibition of VEGF-induced proliferation of HUVEC [7]: ↑↑; Effect: Activiation of type 1 ryanodine receptor [8]: ↑↑↑; Effect: Inhibition of NA+/K+ ATPase pump activity [9]: ↑↑; Effect: Inhibition of NA/H exchanger activity [10]: ↑↑; Effect: Inhibition of VEGF-induced proliferation migration and tube formation of human umbilical vein endothelial cells (HUVEC) [11]: ↑^c; Effect: Cytotoxicity towards S-G cells (immortalized gum epithelial cells) ([5]; Control: Untreated cells): ↑↑↑

Question: With O=C(O[C@@H]1Cc2c(O)cc(O)cc2O[C@@H]1c1cc(O)c(O)c(O)c1)c1cc(O)c(O)c(O)c1 [EGCG, epigallocatechin gallate] as the molecule, how does the “Effect: Inhibition of fatty acid synthase activity” value [6] read?
Answer: Its value is “↑↑↑”.

Question: What about the “Effect: Trolox-equivalent antioxidant activity” value [12] of the same molecule?
Answer: The value was “↑↑”.

Question: What about the “Effect: Reduction … in vitro” value [4] of the same molecule?
Answer: Its value is “↑↑”.

Question: And the “Effect: Inhibition of VEGF-induced proliferation of HUVEC” value [7]?
Answer: Its value is “↑↑”.

Question: What about the “Effect: Activiation of type 1 ryanodine receptor” value [8] of the same molecule?
Answer: The value was “↑↑↑”.

Question: What about the “Effect: Inhibition of NA+/K+ ATPase pump activity” value [9] of the same molecule?
Answer: The value was “↑↑”.

Question: What about the “Effect: Inhibition of NA/H exchanger activity” value [10] of the same molecule?
Answer: The value was “↑”.

Question: And the “Effect: Suppression of fatty acid synthase expression n MCF-7 cells” value [13]?
Answer: Its value is “↑↑↑”.

Question: And the “Effect: Reduction of cell viability in HL-60 cells” value [14]?
Answer: The value was “↑↑”.

Question: And the “Effect: Inhibition of rat liver microsomal 5α-reductase” value ([15]; Control: Untreated enzyme)?
Answer: Its value is “↑”.

Question: What about the “Effect: Cytotoxicity towards S-G cells” value [5] of the same molecule?
Answer: The value was “↑↑↑”.

Question: What about the “Effect: Cytotoxicity, inhibition” value ([3]; galloyl-derivative compared to non-galloylated parent molecule) of the same molecule?
Answer: Its value is “↑↑^c”.

Question: What does the source list for Oc1cc(O)c2c(c1)O[C@H](c1cc(O)c(O)c(O)c1)[C@H](O)C2 [EGC]?
Answer: Effect: Inhibition of fatty acid synthase activity [6]: ↑; Effect: Inhibition of VEGF-induced proliferation of HUVEC [7]: ↑; Effect: Activiation of type 1 ryanodine receptor [8]: ↑; Effect: Inhibition of NA+/K+ ATPase pump activity [9]: ↑; Effect: Inhibition of NA/H exchanger activity [10]: ↑↑↑; Effect: Suppression of fatty acid synthase expression n MCF-7 cells [13]: •; Effect: Cytotoxicity towards S-G cells (immortalized gum epithelial cells) ([5]; Control: Untreated cells): ↑↑

Question: For O=C(O)c1cc(O)c(O)c(O)c1 [GA, gallic acid], which “Effect: Inhibition of fatty acid synthase activity” value [6] is on record?
Answer: The value was “↑”.

Question: What about the “Effect: Induction of apoptosis in HL-60 cells” value [16] of the same molecule?
Answer: The value was “↑↑”.

Question: Which “Effect: Reduction … in vitro” value [4] does the source give for O=C(O[C@@H]1Cc2c(O)cc(O)cc2O[C@H]1c1cc(O)c(O)c(O)c1)c1cc(O)c(O)c(O)c1 [GCG] here?
Answer: Its value is “↑↑↑”.

Question: Which “mean fluorescence (DAF-FM)” value [1] does the source give for N=C(N)NCCC[C@H](N)C(=O)O [L-arginine] here?
Answer: Its value is “noticeably low mean fluorescence”.

Question: Which results are given for O=C(OC[C@H]1O[C@@H](OC(=O)c2cc(O)c(O)c(O)c2)[C@H](OC(=O)c2cc(O)c(O)c(O)c2)[C@@H](OC(=O)c2cc(O)c(O)c(O)c2)[C@@H]1OC(=O)c1cc(O)c(O)c(O)c1)c1cc(O)c(O)c(O)c1 [PGG]?
Answer: Effect: Inhibitory effects on LNCaP and DU145 cells [17]: ↑↑↑; Effect: Growth inhibition of MCF-7 and MDA-MB231 cells [18]: ↑↑↑; Effect: Reduction of cell viability in HL-60 cells [14]: ↑↑↑; Effect: Inhibition of rat liver microsomal 5α-reductase [15]: ↑↑↑; Effect: Triggering of suicidal erythrocyte death [19]: ↑↑; Effect: Cytotoxicity towards K562 cells [20]: ↑

Question: For catechin, which “Effect: Inhibition of fatty acid synthase activity” value [6] is on record?
Answer: The value was “•”.

Question: What about the “Effect: Suppression of fatty acid synthase expression n MCF-7 cells” value [13] of the same molecule?
Answer: Its value is “•”.

Question: For “lipopolysaccharides from E. coli 0111: B4 [LPS]”, which “DAF-FM fluorescence (nitric oxide levels)” value ([1]; RAW264.7 cells, 1 ng/ml incubated for 30 minutes) is on record?
Answer: The value was “bright and consistent DAF-FM fluorescence”.
